# Tests used:
# [1] = test system: HCT116 (colon); experiment: MTT in vitro cytotoxic activity assay, HCT116; type: cell-based; conditions: Homo sapiens, HCT-116, cells exposed for 96 hours, read-out: Cytotoxicity activity IC50 (50% inhibition of cell proliferation)
# Description: (§1) Compounds 1-16 were screened for their in vitro cytotoxic activity utilizing a 3-(4,5-dimethyl-thiazol-2-yl)-2,5-diphenyltetrazolium bromide (MTT) assay against selected cancer human cell lines consisting of PC3 (prostate), HCT116 (colon), A375 (melanoma), H1299 (lung), MIAPaCa-2 (pancreas), HL60 (leukemia), MCF7 (breast), MDA-MB-231 (breast) (T. Mosmann, J. Immunol. Meth., 1983, 65, 55-63). The cells were cultured at 37° C. in RMPI1640 medium supplemented with 10% fetal bovine serum, 50 IU/mL penicillin, and 50 μg/mL streptomycin in a 5% CO2 incubator. All cells were sub-cultured 3 times/week by trypsinisation. Viable cells were seeded and allowed to adhere for 12 hours before a test drug was added in 96-well plates at an initial density of 1.0×10^5 cells/mL. Tumor cell lines were separately exposed to various concentrations of the tested compounds followed by incubation at a temperature of 37° C. during 96 hours inside a medium of fresh RMPI 1640. Cells were subsequently incubated at 37° C. using MTT at 0.5 mg/mL during 4 hours. After removal of supernatant, formazan crystals were dissolved in isopropanol and the optical density was measured at 570 nm. CX-4945 was used as a positive control.
# [2] = target: T1, recombinant human CK2 (RRββ-holoenzyme) (Homo sapiens, UniProt P68400); experiment: CK2 Kinase Assay (33P-ATP, filter plate); type: biochemical; conditions: final ATP concentration 15 μM, 10 minutes at 30° C.; read-out: protein kinase CK2 IC50
# T1 construct: purchased Millipore
# T1 sequence (P68400 whole entry): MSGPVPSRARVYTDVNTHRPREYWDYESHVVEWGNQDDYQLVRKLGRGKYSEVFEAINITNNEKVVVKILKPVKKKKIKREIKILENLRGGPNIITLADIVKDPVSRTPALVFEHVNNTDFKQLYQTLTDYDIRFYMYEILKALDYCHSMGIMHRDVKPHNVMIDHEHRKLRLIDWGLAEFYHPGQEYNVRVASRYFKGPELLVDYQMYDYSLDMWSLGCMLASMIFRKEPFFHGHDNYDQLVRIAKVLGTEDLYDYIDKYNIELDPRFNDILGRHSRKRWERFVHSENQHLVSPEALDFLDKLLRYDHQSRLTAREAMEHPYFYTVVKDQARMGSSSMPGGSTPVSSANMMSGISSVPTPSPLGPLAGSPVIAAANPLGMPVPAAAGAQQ
# T1 sequence (P67870 whole entry partner): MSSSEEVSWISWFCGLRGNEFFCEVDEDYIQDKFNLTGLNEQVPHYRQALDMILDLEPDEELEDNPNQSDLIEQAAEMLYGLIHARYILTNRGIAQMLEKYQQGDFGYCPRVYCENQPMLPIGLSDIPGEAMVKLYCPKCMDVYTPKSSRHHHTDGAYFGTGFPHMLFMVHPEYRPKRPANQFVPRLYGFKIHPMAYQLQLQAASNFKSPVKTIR
# Description: CK2 Kinase Assay was conducted using the protocol as described in Pierre F. et al; J. Med. Chem. 2011, 54, 635-654. The tested compounds in aqueous solution were added at a volume of 10 μL to a reaction mixture comprising 10 μL of assay dilution buffer (ADB; 20 mM MOPS, pH 7.2, 25 mM β-glycerol phosphate, 5 mM EGTA, 1 mM sodium orthovanadate, and 1 mM dithiothreitol), 10 μL of substrate peptide (RRRDDDSDDD, dissolved in ADB at a concentration of 1 mM), 10 μL of recombinant human CK2 (RRββ-holoenzyme, 25 ng dissolved in ADB; Millipore). Reactions were initiated by the addition of 10 μL of ATP solution (90% 75 mMMgCl2, 75 μM ATP (final ATP concentration: 15 μM) dissolved in ADB; 10% [γ-33P] ATP (stock 1 mCi/100 μL; 3000 Ci/mmol (Perkin-Elmer) and maintained for 10 minutes at 30° C. The reactions were quenched with 100 μL of 0.75% phosphoric acid and then transferred to and filtered through a phosphor cellulose filter plate (Millipore). After washing each well five times with 0.75% phosphoric acid, the plate was dried under vacuum for 5 min and, following the addition of 15 μL of scintillation fluid to each well, the residual radioactivity was measured using a Wallac […]. The IC50 values were derived from eight concentrations of test inhibitors.
# [3] = test system: A375 (melanoma); experiment: MTT in vitro cytotoxic activity assay, A375; type: cell-based; conditions: Homo sapiens, A-375, cells exposed for 96 hours, read-out: Cytotoxicity activity IC50 (50% inhibition of cell proliferation)
# Description: as §1
# [4] = test system: MDA-MB-231 (breast); experiment: MTT in vitro cytotoxic activity assay, MDA-MB-231; type: cell-based; conditions: Homo sapiens, cells exposed for 96 hours, read-out: Cytotoxicity activity IC50 (50% inhibition of cell proliferation)
# Description: as §1
# [5] = test system: MCF7 (breast); experiment: MTT in vitro cytotoxic activity assay, MCF7; type: cell-based; conditions: Homo sapiens, cells exposed for 96 hours, read-out: Cytotoxicity activity IC50 (50% inhibition of cell proliferation)
# Description: as §1
# [6] = test system: H1299 (lung); experiment: MTT in vitro cytotoxic activity assay, H1299; type: cell-based; conditions: Homo sapiens, NCI-H1299, cells exposed for 96 hours, read-out: Cytotoxicity activity IC50 (50% inhibition of cell proliferation)
# Description: as §1
# [7] = test system: MIAPaCa-2 (pancreas); experiment: MTT in vitro cytotoxic activity assay, MIAPaCa-2; type: cell-based; conditions: Homo sapiens, MIA PaCa-2, cells exposed for 96 hours, read-out: Cytotoxicity activity IC50 (50% inhibition of cell proliferation)
# Description: as §1
# [8] = test system: HL60 (leukemia); experiment: MTT in vitro cytotoxic activity assay, HL60; type: cell-based; conditions: Homo sapiens, HL-60, cells exposed for 96 hours, read-out: Cytotoxicity activity IC50 (50% inhibition of cell proliferation)
# Description: as §1
# [9] = test system: PC3 (prostate); experiment: MTT in vitro cytotoxic activity assay, PC3; type: cell-based; conditions: Homo sapiens, Prostate cell, cells exposed for 96 hours, read-out: Cytotoxicity activity IC50 (50% inhibition of cell proliferation)
# Description: as §1
smiles,measurement,setting,value
"Clc1cccc(Nc2nc3c(nn4ccncc34)c3cnccc23)c1 [Compound (1), N-(3-chlorophenyl)pyrazino[1′,2′:1,5]pyrazolo[4,3-c][2,6]naphthyridin-5-amine]",IC50,[1],1500 nM
same,IC50,[2],22 nM
same,IC50,[3],3200 nM
same,IC50,[4],4100 nM
same,IC50,[5],4900 nM
same,IC50,[6],1900 nM
same,IC50,[7],1000 nM
same,IC50,[8],3700 nM
same,IC50,[9],1100 nM
